The experiment concerns the target Replicase polyprotein 1ab (Severe acute respiratory syndrome coronavirus 2, UniProt P0DTD1). As to the kind of experiment: Inhibition of full-length recombinant SARS-CoV-2 3CL protease expressed in Escherichia coli BL21 (DE3) cells using fluorogenic MCA-AVLQSGFR-Lys (Dnp)-Lys-NH2 substrate preincubated for 10 mins followed by substrate addition measured for 3.5 mins by FRET assay.

Experimental findings from BindingDB's records for doi:10.1016/j.ejmech.2023.115129 (n/a, 2023) are described below.

`C/N=c1\nc(-c2ccc(OC)c(OC)c2)n(-c2ccc(F)cc2)s1`: the IC50 worked out at 252 nM.

One may read the IC50 as the midpoint of a concentration-inhibition curve.
